Measured values as given in ChEMBL document CHEMBL6127077, “Discovery and biological evaluation of 6-aryl-4-(3,4,5-trimethoxyphenyl)quinoline derivatives with promising antitumor activities as novel colchicine-binding site inhibitors” (Eur J Med Chem, 2024).
pIC50: −log10 of the molar value. Each block holds one molecule with its values, some of them ahead of it. Active and inactive are the calls of the source. No cut-off for these calls is given here.

Legend:
[1] = test system: MCF7; experiment: cells; details: Homo sapiens, MCF7, 72 h
Description: Antiproliferative activity against human MCF7 cells assessed as inhibition of cell growth incubated for 72 hrs by MTT assay

[2] = test system: Huh-7; experiment: cells; details: Homo sapiens, Huh-7, 72 h
Description: Antiproliferative activity against human Huh-7 cells assessed as inhibition of cell growth incubated for 72 hrs by MTT assay

[3] = test system: SGC-7901; experiment: Antiproliferative activity against human SGC-7901 cells assessed as inhibition of cell growth incubated for 72 hrs by MTT assay; type: functional, cell-based; details: SGC-7901, 72 h
[4] = test system: Huh-7; experiment: Induction of apoptosis in human Huh-7 cells assessed as late apoptotic cells at 90 nM incubated for 48 hrs by Annexin-V/PI staining based flow cytometry analysis (reference value: 4.06%); type: functional
[5] = Antiproliferative activity against human MCF7/ADM cells assessed as inhibition of cell growth incubated for 72 hrs by MTT assay; type: functional, cell-based
[6] = test system: Huh-7; experiment: Induction of cell cycle arrest in human Huh-7 cells assessed as accumulation of cells at G0/G1 phase at 90 nM incubated for 30 to 60 mins by RNase/PI staining based flow cytometry analysis (reference value: 55.08%); type: functional; details: time 30-60 min
[7] = test system: Huh-7; experiment: Induction of cell cycle arrest in human Huh-7 cells assessed as accumulation of cells at G2M phase at 60 nM incubated for 30 to 60 mins by RNase/PI staining based flow cytometry analysis (reference value: 8.38%); type: functional; details: time 30-60 min
[8] = test system: Huh-7; experiment: Induction of cell cycle arrest in human Huh-7 cells assessed as accumulation of cells at G2M phase at 90 nM incubated for 30 to 60 mins by RNase/PI staining based flow cytometry analysis (reference value: 8.38%); type: functional; details: time 30-60 min
[9] = target: T1, Tubulin (Homo sapiens) (UniProt P68371+Q9H4B7+P0DPH7+P68366+Q13509+Q71U36+P04350+Q3ZCM7+P07437+P68363+Q9BQE3+Q6PEY2+Q13885+Q9BVA1+Q9BUF5); experiment: Binding affinity to Tubulin (unknown origin) colchicine binding site assessed as reduction in colchicine-tubulin complex formation by Fluorescence based analysis; type: protein-complex assay; details: dose 2-6 µM
[10] = test system: Huh-7; experiment: Induction of apoptosis in human Huh-7 cells assessed as early apoptotic cells at 60 nM incubated for 48 hrs by Annexin-V/PI staining based flow cytometry analysis (reference value: 0.56%); type: functional
[11] = test system: Huh-7; experiment: Induction of apoptosis in human Huh-7 cells assessed as necrotic cells at 120 nM incubated for 48 hrs by Annexin-V/PI staining based flow cytometry analysis (reference value: 0.60%); type: functional
[12] = test system: Huh-7; experiment: Induction of cell cycle arrest in human Huh-7 cells assessed as accumulation of cells at G0/G1 phase at 120 nM incubated for 30 to 60 mins by RNase/PI staining based flow cytometry analysis (reference value: 55.08%); type: functional; details: time 30-60 min
[13] = test system: Huh-7; experiment: Induction of apoptosis in human Huh-7 cells assessed as early apoptotic cells at 120 nM incubated for 48 hrs by Annexin-V/PI staining based flow cytometry analysis (reference value: 0.56%); type: functional
[14] = Toxicity in male BALB/c mouse assessed as body weight loss at 15 mg/kg, ip administered every 2 days for 2 weeks; type: organism-based; details: in vivo, 336 h
[15] = target: T1, Tubulin (Homo sapiens); experiment: Inhibition of tubulin polymerization (unknown origin) at 3 to 5 uM by infinite F500 microplate reader analysis; type: protein-complex assay; details: dose 3-5 µM
[16] = test system: Huh-7; experiment: Induction of cell cycle arrest in human Huh-7 cells assessed as accumulation of cells at S-phase at 90 nM incubated for 30 to 60 mins by RNase/PI staining based flow cytometry analysis (reference value: 36.54%); type: functional; details: time 30-60 min
[17] = test system: Huh-7; experiment: Antitumor activity against human Huh-7 cells xenografted in male BALB/c mouse at 15 mg/kg, ip administered every 2 days for 2 weeks; type: functional, organism-based
[18] = test system: Huh-7; experiment: Induction of apoptosis in human Huh-7 cells assessed as necrotic cells at 60 nM incubated for 48 hrs by Annexin-V/PI staining based flow cytometry analysis (reference value: 0.60%); type: functional
[19] = test system: Huh-7; experiment: Induction of apoptosis in human Huh-7 cells assessed as necrotic cells at 90 nM incubated for 48 hrs by Annexin-V/PI staining based flow cytometry analysis (reference value: 0.60%); type: functional
[20] = test system: Huh-7; experiment: Induction of cell cycle arrest in human Huh-7 cells assessed as accumulation of cells at S-phase at 120 nM incubated for 30 to 60 mins by RNase/PI staining based flow cytometry analysis (reference value: 36.54%); type: functional; details: time 30-60 min
[21] = target: T1, Tubulin (Homo sapiens); experiment: Inhibition of tubulin polymerization (unknown origin) by infinite F500 microplate reader analysis; type: protein-complex assay; details: dose 3-5 µM
[22] = target: T1, Tubulin (Homo sapiens); experiment: Disruption of microtubule network in human Huh-7 cells assessed as shortened microtubule wrap around the nucleus incubated for 24 hrs by DAPI staining based microscopic analysis; type: cell-based; details: dose 30-60 nM
[23] = test system: Huh-7; experiment: Induction of cell cycle arrest in human Huh-7 cells assessed as accumulation of cells at G0/G1 phase at 60 nM incubated for 30 to 60 mins by RNase/PI staining based flow cytometry analysis (reference value: 55.08%); type: functional; details: time 30-60 min
[24] = test system: Huh-7; experiment: Induction of apoptosis in human Huh-7 cells assessed as early apoptotic cells at 90 nM incubated for 48 hrs by Annexin-V/PI staining based flow cytometry analysis (reference value: 0.56%); type: functional
[25] = test system: Huh-7; experiment: Induction of apoptosis in human Huh-7 cells assessed as viable cells at 120 nM incubated for 48 hrs by Annexin-V/PI staining based flow cytometry analysis (reference value: 94.8%); type: functional; details: read-out: Activity
[26] = test system: Huh-7; experiment: Induction of cell cycle arrest in human Huh-7 cells assessed as accumulation of cells at S-phase at 60 nM incubated for 30 to 60 mins by RNase/PI staining based flow cytometry analysis (reference value: 36.54%); type: functional; details: time 30-60 min
[27] = test system: Huh-7; experiment: Induction of apoptosis in human Huh-7 cells assessed as viable cells at 60 nM incubated for 48 hrs by Annexin-V/PI staining based flow cytometry analysis (reference value: 94.8%); type: functional; details: read-out: Activity
[28] = Toxicity in male BALB/c mouse assessed as liver damage at 15 mg/kg, ip administered every 2 days for 2 weeks by H and E staining based analysis; type: organism-based; details: in vivo, 336 h
[29] = test system: Huh-7; experiment: Induction of cell cycle arrest in human Huh-7 cells assessed as accumulation of cells at G2M phase at 120 nM incubated for 30 to 60 mins by RNase/PI staining based flow cytometry analysis (reference value: 8.38%); type: functional; details: time 30-60 min
[30] = test system: Huh-7; experiment: Induction of apoptosis in human Huh-7 cells assessed as late apoptotic cells at 60 nM incubated for 48 hrs by Annexin-V/PI staining based flow cytometry analysis (reference value: 4.06%); type: functional
[31] = test system: Huh-7; experiment: Induction of apoptosis in human Huh-7 cells assessed as viable cells at 90 nM incubated for 48 hrs by Annexin-V/PI staining based flow cytometry analysis (reference value: 94.8%); type: functional; details: read-out: Activity
[32] = Cytotoxicity against human HUVEC cells incubated for 72 hrs by MTT assay; type: toxicity, cell-based
[33] = test system: Huh-7; experiment: Induction of apoptosis in human Huh-7 cells assessed as late apoptotic cells at 120 nM incubated for 48 hrs by Annexin-V/PI staining based flow cytometry analysis (reference value: 4.06%); type: functional
[34] = target: T1, Tubulin (Homo sapiens); experiment: Inhibition of tubulin polymerization (unknown origin) at 5 uM by infinite F500 microplate reader analysis; type: protein-complex assay

SMILES: CCOc1ccc(-c2ccc3nccc(-c4cc(OC)c(OC)c(OC)c4)c3c2)cc1
pIC50 [1]: 5.51
pIC50 [2]: 6.38
pIC50 [3]: 5.41

SMILES: COc1cc(-c2ccnc3ccc(-c4ccc(C#N)cc4)cc23)cc(OC)c1OC
pIC50 [1]: < 4.00
pIC50 [2]: 5.47
pIC50 [3]: 5.13

SMILES: COc1ccc(/C=C\c2cc(OC)c(OC)c(OC)c2)cc1O [COMBRETASTATIN A4]
pIC50 [1]: 7.06
pIC50 [2]: 7.10
pIC50 [5]: 5.70
Activity [22]: Dose-Dependent Effect
IC50 at 72 h [32]: 0.32 µM
pIC50 [3]: 6.92

SMILES: COc1cc(-c2ccnc3ccc(-c4ccc(Cl)cc4)cc23)cc(OC)c1OC
pIC50 [1]: 4.79
pIC50 [2]: 5.34
pIC50 [3]: 4.92

SMILES: CC(=O)O[C@H]1C(=O)[C@@]2(C)[C@H]([C@H](OC(=O)c3ccccc3)[C@]3(O)C[C@H](OC(=O)[C@H](O)[C@@H](NC(=O)c4ccccc4)c4ccccc4)C(C)=C1C3(C)C)[C@]1(OC(C)=O)CO[C@@H]1C[C@@H]2O
inhibition [34]: Active

SMILES: COc1cc(-c2ccnc3ccc(-c4ccsc4)cc23)cc(OC)c1OC
pIC50 [1]: 5.65
pIC50 [2]: 6.57
pIC50 [3]: 5.75

SMILES: COc1cc(-c2ccnc3ccc(-c4ccncc4)cc23)cc(OC)c1OC
pIC50 [1]: 4.35
pIC50 [2]: < 4.00
pIC50 [3]: < 4.00

SMILES: COc1cc(-c2ccnc3ccc(-c4cccnc4)cc23)cc(OC)c1OC
pIC50 [1]: 4.66
pIC50 [2]: 5.34
pIC50 [3]: 5.04

SMILES: COc1cc(-c2ccnc3ccc(-c4ccc5ccccc5c4)cc23)cc(OC)c1OC
pIC50 [1]: < 4.00
pIC50 [2]: 5.35
pIC50 [3]: 5.87

SMILES: COc1cc(-c2ccnc3ccc(-c4ccc([N+](=O)[O-])cc4)cc23)cc(OC)c1OC
pIC50 [1]: < 4.00
pIC50 [2]: 5.09
pIC50 [3]: 4.69

Further lines, with some results ahead:

pIC50 [1]: 6.89
pIC50 [2]: 7.52
Activity [9]: Dose-Dependent Effect
inhibition [15]: Active
inhibition [21]: Dose-Dependent Effect
Activity [22]: Dose-Dependent Effect
pIC50 [3]: 6.74
SMILES: COc1cc(-c2ccnc3ccc(-c4cccc5[nH]ccc45)cc23)cc(OC)c1OC
Activity [4]: 20.1%
pIC50 [5]: 6.28
Activity [6]: 47.21%
Activity [7]: 9.39%
Activity [8]: 28.14%
Activity [10]: 1.05%
Activity [11]: 2.45%
Activity [12]: 9.25%
Activity [13]: 4.73%
Activity [14]: Non-Toxic
Activity [16]: 24.65%
Activity [17]: Active
Activity [18]: 1.58%
Activity [19]: 3.39%
Activity [20]: 42.03%
Activity [23]: 53.2%
Activity [24]: 4.05%
viability at 0.12 µM [25]: 63.5%
Activity [26]: 37.41%
viability at 0.06 µM [27]: 91.1%
Activity [28]: Non-Toxic
Activity [29]: 48.72%
Activity [30]: 6.27%
viability at 0.09 µM [31]: 72.5%
IC50 at 72 h [32]: 5.82 µM
Activity [33]: 29.3%

pIC50 [1]: < 4.00
pIC50 [2]: 4.40
pIC50 [3]: < 4.00
SMILES: COc1cc(-c2ccnc3ccc(-c4ccccc4C)cc23)cc(OC)c1OC

pIC50 [1]: 6.48
pIC50 [2]: 7.40
pIC50 [3]: 5.86
SMILES: COc1ccc(-c2ccc3nccc(-c4cc(OC)c(OC)c(OC)c4)c3c2)cc1

pIC50 [1]: 4.76
pIC50 [2]: 5.47
pIC50 [3]: 5.11
SMILES: COc1cccc(-c2ccc3nccc(-c4cc(OC)c(OC)c(OC)c4)c3c2)c1

pIC50 [1]: 5.87
pIC50 [2]: 5.94
pIC50 [3]: 6.22
SMILES: COc1cc(-c2ccnc3ccc(-c4ccc(C)cc4)cc23)cc(OC)c1OC

pIC50 [1]: 4.77
pIC50 [2]: 5.29
pIC50 [3]: 4.98
SMILES: COc1cc(-c2ccnc3ccc(-c4ccc(F)cc4)cc23)cc(OC)c1OC

pIC50 [1]: 6.02
pIC50 [2]: 7.10
pIC50 [3]: 6.06
SMILES: COc1ccc(-c2ccc3nccc(-c4cc(OC)c(OC)c(OC)c4)c3c2)cc1OC

pIC50 [1]: 5.87
pIC50 [2]: 5.44
pIC50 [3]: 5.67
SMILES: COc1cc(-c2ccnc3ccc(-c4ccc(C)c(C)c4)cc23)cc(OC)c1OC

pIC50 [1]: < 4.00
pIC50 [2]: 6.49
pIC50 [3]: 5.72
SMILES: COc1cc(-c2ccnc3ccc(-c4ccc(O)cc4)cc23)cc(OC)c1OC

pIC50 [1]: 5.44
pIC50 [2]: 6.92
pIC50 [3]: 4.60
SMILES: COc1ccc(-c2ccc3nccc(-c4cc(OC)c(OC)c(OC)c4)c3c2)cc1O

pIC50 [1]: 5.84
pIC50 [2]: 5.94
pIC50 [3]: 5.10
SMILES: COc1cc(-c2ccnc3ccc(-c4ccccc4)cc23)cc(OC)c1OC

pIC50 [1]: < 4.00
pIC50 [2]: 5.33
pIC50 [3]: 4.76
SMILES: COc1ccccc1-c1ccc2nccc(-c3cc(OC)c(OC)c(OC)c3)c2c1

pIC50 [1]: 4.75
pIC50 [2]: 5.88
pIC50 [3]: 4.46
SMILES: COc1cc(-c2ccnc3ccc(-c4cccc(C)c4)cc23)cc(OC)c1OC
